Reference: article PMC5042876 (Journal of the American Chemical Society, 2016)
Changes are numbered by the printed parent chain.

Tests used:
[1] = target: T1, PntM M81C (Streptomyces arenae, UniProt E3VWI3, M81C); assay: Steady-state kinetics and product profile, PntM M81C; type: biochemical; conditions: M81C mutant
T1 sequence (E3VWI3 1-398 M81C): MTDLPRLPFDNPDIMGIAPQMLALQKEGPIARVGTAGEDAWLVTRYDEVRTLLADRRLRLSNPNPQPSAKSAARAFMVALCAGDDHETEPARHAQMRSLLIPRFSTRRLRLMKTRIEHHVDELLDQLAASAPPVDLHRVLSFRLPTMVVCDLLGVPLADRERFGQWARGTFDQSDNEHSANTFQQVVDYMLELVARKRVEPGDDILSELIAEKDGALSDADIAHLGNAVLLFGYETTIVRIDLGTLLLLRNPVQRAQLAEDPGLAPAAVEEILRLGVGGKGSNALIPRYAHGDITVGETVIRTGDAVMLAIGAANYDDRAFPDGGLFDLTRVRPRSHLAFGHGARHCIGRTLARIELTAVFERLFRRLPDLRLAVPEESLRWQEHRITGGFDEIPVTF

[2] = target: T2, PntM M81C-BME (Streptomyces arenae, UniProt E3VWI3, M81C); assay: Steady-state kinetics and product profile, PntM M81C-BME; type: biochemical; conditions: M81C-BME mutant
T2 sequence (E3VWI3 1-398 M81C): T1 sequence (E3VWI3 1-398 M81C)

[3] = target: wild-type PntM (CYP161C2) (Streptomyces arenae, UniProt E3VWI3); assay: Substrate binding assay
[4] = target: T3, PntM-F232G (Streptomyces arenae, UniProt E3VWI3, F232G); assay: Substrate binding assay
T3 sequence (E3VWI3 1-398 F232G): T1 sequence (E3VWI3 1-398 M81C) with C81M, F232G

[5] = target: T4, PntM F232A (Streptomyces arenae, UniProt E3VWI3, F232A); assay: Substrate binding assay
T4 sequence (E3VWI3 1-398 F232A): T1 sequence (E3VWI3 1-398 M81C) with C81M, F232A

[6] = target: T5, PntM F232H (Streptomyces arenae, UniProt E3VWI3, F232H); assay: Substrate binding assay, PntM F232H; conditions: PntM F232H mutant
T5 sequence (E3VWI3 1-398 F232H): T1 sequence (E3VWI3 1-398 M81C) with C81M, F232H

[7] = target: T6, PntM M77S (Streptomyces arenae, UniProt E3VWI3, M77S); assay: Substrate binding assay
T6 sequence (E3VWI3 1-398 M77S): T1 sequence (E3VWI3 1-398 M81C) with M77S, C81M

[8] = target: T7, PntM M81A (Streptomyces arenae, UniProt E3VWI3, M81A); assay: Substrate binding assay
T7 sequence (E3VWI3 1-398 M81A): T1 sequence (E3VWI3 1-398 M81C) with C81A

[9] = target: T8, PntM F232L (Streptomyces arenae, UniProt E3VWI3, F232L); assay: Substrate binding assay
T8 sequence (E3VWI3 1-398 F232L): T1 sequence (E3VWI3 1-398 M81C) with C81M, F232L

[10] = target: T4, PntM F232A; assay: Steady-state kinetics and product profile, PntM F232A; type: biochemical; conditions: F232A mutant
[11] = target: T6, PntM M77S; assay: Steady-state kinetics and product profile, PntM M77S; type: biochemical; conditions: M77S mutant
[12] = target: T2, PntM M81C-BME; assay: Substrate binding assay
[13] = target: T1, PntM M81C; assay: Substrate binding assay
[14] = target: T9, PntM F232Y (Streptomyces arenae, UniProt E3VWI3, F232Y); assay: Substrate binding assay, PntM F232Y; conditions: PntM F232Y mutant
T9 sequence (E3VWI3 1-398 F232Y): T1 sequence (E3VWI3 1-398 M81C) with C81M, F232Y

[15] = target: T7, PntM M81A; assay: Steady-state kinetics and product profile, PntM M81A; type: biochemical; conditions: M81A mutant
[16] = target: T8, PntM F232L; assay: Steady-state kinetics and product profile, PntM F232L; type: biochemical; conditions: F232L mutant
[17] = comparator not stated, figures fit comparison with M81C

wild-type PntM (CYP161C2), sequence (E3VWI3 whole entry): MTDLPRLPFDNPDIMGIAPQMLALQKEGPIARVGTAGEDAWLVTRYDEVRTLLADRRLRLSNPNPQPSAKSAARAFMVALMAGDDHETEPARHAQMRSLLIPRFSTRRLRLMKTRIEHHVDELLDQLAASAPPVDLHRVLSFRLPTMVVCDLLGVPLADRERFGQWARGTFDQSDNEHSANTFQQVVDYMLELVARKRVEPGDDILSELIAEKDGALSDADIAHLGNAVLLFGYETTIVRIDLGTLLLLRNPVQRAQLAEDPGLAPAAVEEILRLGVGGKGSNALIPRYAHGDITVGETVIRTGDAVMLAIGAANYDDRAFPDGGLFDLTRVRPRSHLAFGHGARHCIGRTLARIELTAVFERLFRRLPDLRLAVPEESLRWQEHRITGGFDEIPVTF

CC1(C)C[C@H]2C=C(C(=O)O)[C@@H]3COC(=O)[C@]4(CO4)[C@]23C1 [compound 2, pentalenolactone F]
product profile (GC-MS) [1]: exclusive formation of the oxidative rearrangement product 1
reduction in kcat/Km compared to wild-type [1]: 10 fold
product profile (GC-MS) [2]: no change in product profile
Kd [3]: 7.2 ± 0.8 µM
Kd [4]: 225 ± 45 µM
Kd [5]: 270 ± 85 µM
binding of substrate [6]: did not bind
Kd [7]: 115 ± 8 µM
Kd [8]: 340 ± 90 µM
Kd [9]: 160 ± 12 µM
lower kcat/Km than wild type PntM [10]: > 60 fold
product profile (GC-MS) [10]: exclusively pentalenolactone
product profile (GC-MS) [11]: no change in product profile
less active [11, 17]: 5-15 fold
KD greater than that of wild-type PntM [12]: 4-6 fold
Kd [12]: 31 ± 1 µM
KD greater than that of wild-type PntM [13]: 4-6 fold
Kd [13]: 43 ± 3 µM
binding of substrate [14]: did not bind
product profile (GC-MS) [15]: no change in product profile
less active [15, 17]: 5-15 fold
decrease in kcat compared to wild type PntM [16]: 20 fold
reduction in Km compared to wild type PntM [16]: 3 fold
reduction in kcat/Km compared to wild type PntM [16]: 7 fold
product profile (GC-MS of total product mixture) ([16]; no detectable hydroxylation products): only the natural oxidative rearrangement product, pentalenolactone (1)

CC1(C)C[C@H]2C[C@@H](C(=O)O)[C@@H]3COC(=O)[C@]4(CO4)[C@]23C1 [compound 7, 6,7-dihydropentalenolactone F]
Kd [3]: 170 ± 17 µM
binding weaker than natural substrate 2 [3]: ~25 times
P450 binding spectrum ([3]; wild-type PntM, UV shift from 420 nm to 390 nm): normal Type I P450 binding spectrum
